Assays:
[1] = Moderate sUA supplementation in mice (plasma, whole blood, tissue and serum levels); format: in vivo, mouse; settings: for Interference with whole blood NAD+ metabolism: OA or inosine alone, 1-day treatment, inflammatory conditions
Method: Plasma sUA levels in mice were increased to the minimum physiological levels of humans by moderate sUA supplementation. For 1-day sUA supplementation, WT and CD38 KO mice received oral administration of saline, OA (1.5 g/kg), or OA (1.5 g/kg) plus inosine (1.5 g/kg), the gavage volume was 5 mL/kg. Drug suspension in saline was freshly prepared and warmed to 37°C before each treatment. The mice received the first treatment on the evening (19:00) of the first day and the second treatment on the morning (9:00) of the second day. For 3- or 7-day sUA supplementation, WT and CD38 KO mice received the same treatment twice daily from the evening of the first day to the morning of the last day. Four hours after the last treatment, the mice were sacrificed and whole blood, serum, plasma, and tissues were collected for metabolic studies. For immunological studies, mice were stimulated with different ligands 2 hr after the second treatment on the morning (9:00) of the second day.
WT mice received oral administration of saline, OA, or OA plus inosine (1-day supplementation model, as described above). One day (28 hr) or 3 days (76 hr) after the second treatment, the mice were sacrificed and whole blood and plasma were collected.
The collected whole blood samples were immediately diluted 10-fold in 5% ice-cold PCA and homogenized on ice. After 10 min centrifugation at 15,000 rpm, 4°C, the supernatant was subpackaged for measurement or –80°C storage. For NAD^+ measurement in whole blood, the supernatant was handled without freezing and thawing and was measured within 24 hr of sample collection. For measurement of plasma sUA, after sample collection, we immediately diluted the plasma with 5% ice-cold PCA, after vortex, samples were centrifuged at 15,000 rpm, 4°C for 10 min, the collected supernatant was used for the subsequent handling and measurement within 24 hr.
After the collection of blood samples, the mice were immediately perfused with ice-cold sterile PBS. The tissue samples were collected, dried with tissue paper, and weighed. All the tissue samples were immediately homogenized in 5% ice-cold PCA on ice, then centrifuged at 15,000 rpm, 4°C for 10 min. The supernatant was collected and stored at –80°C until further handling for measurement (see LC-MS/MS analysis).
As mentioned above, samples (cells, tissues, blood, or reaction buffer) were treated with ice-cold PCA, after extraction and centrifugation, the collected supernatant was appropriately diluted in 5% ice-cold PCA when applicable, and then was vortexed for 30 s and centrifuged at 15,000 rpm, 4°C for 5 min. Afterward, 30 μL supernatant was added into 200 μL 5 mM ammonium formate containing internal standards at indicated concentrations. Then, all the samples were vortexed for 30 s and centrifuged at 15,000 rpm, 4°C for 5 min again, the final supernatant was used for subsequent measurement. All the samples after handling were immediately analyzed in this study without freezing and thawing.
The LC-MS/MS system consisted of a triple quadrupole LCMS-8050 (Shimadzu) and an LC-30A system (Shimadzu). NAD^+, NMN, and the N-cyclohexyl benzamide (NCB, internal standard, 5 ng/mL) were eluted on Altlantis HILIC Silica (2.1×150 mm, 5 μm) at 40°C using an isocratic mobile phase containing 60% water with 0.1% formic acid and 40% acetonitrile with 0.1% formic acid at 0.4 mL/min. The selected transitions of m/z were 664.10 → 136.10 for NAD^+, 334.95 → 123.15 for NMN, and 204.10 → 122.20 for NCB in positive ion mode. NAD^+ and NMN were measured independently in this study, as their peaks were hardly separated within a short time.
sUA, cADPR, and FYU-981 (internal standard, 1 μM, Fuji Yakuhin Co., Ltd.) were eluted on CAPCELL PAK C8 TYPE UG 120 (2×150 mm, 5 μm) at 40°C. sUA and FYU-981 were separated using a gradient mobile phase containing water with 0.1% formic acid (A) and acetonitrile with 0.1% formic acid (B) at 0.4 mL/min. […]

[2] = tested on: cLPS-induced systemic inflammation; test: cLPS-induced systemic inflammation; format: in vivo, mouse; settings: WT mice; for Effect on cLPS-induced systemic inflammation: OA or inosine alone, 1-day oral treatment
Method: Plasma sUA levels in WT and CD38 KO mice were increased to the minimum physiological levels of humans by 1-day sUA supplementation (OA plus inosine). Two hours after the last treatment of OA, or OA plus inosine, the mice were intraperitoneally injected with sterile PBS or cLPS (2 or 20 mg/kg), the injection volume was 3 mL/kg. Four hours (20 mg/kg) or 6 hr (2 mg/kg) after stimulation, the mice were sacrificed and whole blood, plasma, and serum were collected.
(§1) Human IL-1β, mouse IL-1β, IL-6, IL-18, TNF-α, and CXCL1 levels were measured according to the protocols provided by the manufacturer. Serum samples were diluted before ELISA when applicable. In this study, all the samples were frozen after collection and thawed before ELISA.

[3] = tested on: MSU crystal-induced peritonitis; test: MSU crystal-induced peritonitis; format: in vivo; settings: WT mice, MSU crystals 2 mg/mouse; for Effect on MSU crystal-induced peritonitis: OA or inosine alone, 1-day oral treatment
Method: Plasma sUA levels in WT and CD38 KO mice were increased to the minimum physiological levels of humans by 1-day sUA supplementation (OA plus inosine). Two hours after the last treatment of OA, or OA plus inosine, the mice were intraperitoneally injected with sterile PBS or MSU crystals (2 mg/mouse), and the injection volume was 200 μL/mouse. Six hours after stimulation, the mice were sacrificed and blood samples were collected. For each mouse, the peritoneal cavity was washed with 5 mL ice-cold sterile PBS, the supernatant was collected by centrifugation for subsequent ELISA, and cell pellets were used for total viable cell count by Trypan Blue staining. In brief, cell pellet from 1.5 mL of peritoneal lavage fluid was resuspended in RBC lysis buffer for 30 s, sterile PBS (ninefold volume) was added to terminate lysis. Afterward, the cells were centrifuged at 1000 rpm for 5 min and resuspended in sterile PBS for viable cell count. For neutrophil count, peritoneal lavage fluid was directly used for smears after appropriate dilution, and subsequently, Wright-Giemsa staining was performed according to the protocol provided by the manufacturer.
as §1

[4] = 6 hr, 1-day sUA supplementation, not in CD38 KO mice

| concentration at 4 h ([1]; mouse, plasma, mice, oral OA 1.5 g/kg plus inosine 1.5 g/kg, read-out: Plasma sUA levels in the sUA-supplementation models) [µM] | Serum IL-1β production ([1]; sUA-supplementation models within 7 days) | Structure (SMILES) | Interference with whole blood NAD+ metabolism ([1]; WT mice) | Effect on cLPS-induced systemic inflammation ([2]; cLPS 2 mg/kg) | Effect on MSU crystal-induced peritonitis [3] | Whole blood NAD+ levels ([1]; 1- or 3-day moderate sUA supplementation (OA plus inosine), WT mice, not in CD38 KO mice) | cADPR production in whole blood ([1]; 1-day sUA supplementation, inflammatory conditions (cLPS 2 mg/kg), not under non-inflammatory conditions) | NAD+ levels in the brain and heart ([1]; 7-day sUA-supplementation model) | Plasma sUA and whole blood NAD+ after sUA release ([1]; WT mice, 1-day or 3-day release after 1-day supplementation) | NMN levels in vivo ([1]; sUA supplementation, whole blood) | cLPS-induced production of serum IL-1β and IL-18 ([2]; cLPS 2 mg/kg, 6 hr, 1-day sUA supplementation (OA plus inosine), abrogated in CD38 KO mice) | Serum TNF-α levels ([2]; cLPS 2 mg/kg, 6 hr, 1-day sUA supplementation) | High-dose cLPS-induced systemic inflammation ([2]; cLPS 20 mg/kg, 4 hr) | Production of IL-1β and IL-6, peritoneal lavage fluid [3, 4] | Recruitment of viable cells and neutrophils, peritoneal lavage fluid [3, 4] | Effect on plasma sUA levels ([1]; mice, short-term administration of OA alone) |
| --- | --- | --- | --- | --- | --- | --- | --- | --- | --- | --- | --- | --- | --- | --- | --- | --- |
| – | – | O=c1[nH]cnc2c1ncn2[C@@H]1O[C@H](CO)[C@@H](O)[C@H]1O [Inosine, inosine, reference compound] | had no interference | hardly affected | hardly affected | – | – | – | – | – | – | – | – | – | – | – |
| ~120 | did not show an increase | O=c1[nH]c(=O)c2[nH]c(=O)[nH]c2[nH]1 [sUA, uric acid] | – | – | – | slightly but significantly increased | decrease in cADPR production | appeared to be elevated | gradually returned to their initial levels | minor effect on NMN levels | suppressed | without affecting | hardly limited | reduced the production of IL-1β and IL-6 | inhibited the recruitment of viable cells and neutrophils | – |
| – | – | O=C(O)c1nc(=O)[nH]c(=O)[nH]1 [OA, oxonic acid, reference compound] | had no interference | hardly affected | hardly affected | – | – | – | – | – | – | – | – | – | – | failed to increase plasma sUA levels |
